Experimental data reported in patent US20230346769A1, “USE OF SIMPLE ACYCLIC POLYAMINES FOR THE TREATMENT OF DISEASES CAUSED BY PARASITES OF THE GENUS LEISHMANIA” (Universidad De Granada, priority 2020, published 2023).

Experiments:
[1] = Potentiometric titrations, protonation constants; type: physicochemical; details: 0.15 M NaCl, 298.1 K
Protocol: FEM measurements. Potentiometric titrations were conducted at 298.1 ± 0.1 K using 0.15 M NaCl as the support electrolyte. The experimental procedure (burette, potentiometer, cell, stirrer, microcomputer, etc.) has been fully described elsewhere (E. García-Spain, M.-J. Ballester, F. Lloret, J.M. Moratal, J. Faus and A. Bianchi, J. Chem. Soc. Dalton Trans. 1988, 101-104). The FEM data acquisition was performed with the PASAT software (M. Fontanelli and M. Micheloni, Program for the automatic control of the microburette and the acquisition of the electromotor force readings (PASAT). Minutes of the 1st Spanish-Italian Congress of Thermodynamics of Metal Complexes, Peñíscola, Castellón, Spain, 1990). The reference electrode was an Ag/AgCl electrode in saturated KCI solution. The glass electrode was calibrated as a hydrogen ion concentration probe by titration of previously standardised amounts of HCl with CO2 free NaOH solutions and the equivalent point determined by Gran’s method ((a) G. Gran, Analyst 1952, 77, 661 -671; (b) F.J. Rossotti and H. Rossotti, J. Chem. Educ. 1965, 42, 375-378) providing the standard potential, Eº’, and the ionic product of water (pKw = 13.73 (1)).
Hyperquad software was used to calculate protonation and stability constants (P. Gans, A. Sabatini and A. Vacca, Talanta 1996, 43, 1739-1753). The pH range investigated was 2.5-11.0 and the concentration of the ligands varied from 1×10^-3 to 5×10^-3 M. The different titration curves for each system (at least two) were treated as a single set or as separate curves without significant variations in the values of the stability constants. Finally, the data sets were fused and treated simultaneously to give the final protonation constants (Table 1). For compounds 1, 7 and 9, two protonation constants have been detected in the pH range studied with values ranging from 5.51 to 9.68 logarithmic units. For the remaining compounds, three protonation constants have been measured with values ranging from 10.08 to 2.25 logarithmic units. All compounds have charge +1 at the physiological pH value of 7.4.

[2] = system: L. infantum promastigote forms; assay: In vitro activity against extracellular (promastigote) forms; type: cell-based, Leishmania infantum; details: for Selectivity Index (SI) L. infantum Promastigote forms: IC50 of macrophages / IC50 of parasite form; for IC50: Leishmania infantum, 72 h
Description: (§1) Methodology: Cultures of three Leishmania species, representative of the species causing each of the clinical forms of the disease, were used for these studies. Specifically, strains MCAN/ES/2001/UCM-1 O of L.infantum, isolated and characterised in Madrid from an infected dog; MHOM/BR/1975/M2904 of L.braziliensis, isolated in Brazil in a human case, and LCR-L 133 LRC of L.donovani. isolated in Jerusalem, Israel from a case of kala-azar […] (WHO Technical Reports Series 949. Geneva: WHO. March. The cultures of parasites come from an own collection which was prepared from a biobank project (Biobank and Characterisation Unit of Strains and Species of Trypanosomatids, Responsible for Human, Animal and Plant Pathologies, Cgl-2008-03687-E/Bos.), and are available on request.
(§2) The promastigote forms of the three species studied were cultured in vitro in sterility in single-phase MTL culture medium (Medium Trypanosomes Liquid) made from Hank’s Balanced Salts (Sigma-Aldrich, H6136) enriched with 10% (v/v) of Fetal Bovine Serum (SBF-1) inactivated at 56° C./ 30 minutes. The parasite inoculum to initiate the culture was 5 × 10^4 cells/ml in 5 ml medium in 25 cm^2 Falcon® plastic flasks and kept in an oven at 28° C. The cultures were performed routinely, achieving exponential growth of the flagellates until obtaining the cell mass necessary for the subsequent studies. Both promastigote forms and amastigote forms were used to conduct the assays.
(§3) The promastigote forms of the three Leishmania strains, cultured in the manner described above, were harvested in their exponential growth phase by centrifugation at 400 g for 10 min. The number of parasites was counted in a Neubauer Haemocytometer Counting Chamber and were inoculated in a 24-well plate at a concentration of 5 ×10^4 parasites/well.
(§4) The compounds to be assayed were dissolved in DMSO at a concentration of 0.01% (v/v), concentration at which this solvent is not toxic nor has any effect on the growth of parasites. The compounds were added to the culture medium at final concentrations of 100, 50, 25 and 12.5 µM. […] M. et al. Med. Chem. 2011. 54. 970-979].

[3] = system: L. infantum amastigote forms; assay: In vitro activity against intracellular (amastigote) forms in macrophages; type: cell-based, Leishmania infantum; details: for Selectivity Index (SI) L. infantum Amastigote forms: IC50 of macrophages / IC50 of parasite form; for IC50: Leishmania infantum, Macrophage, 72 h
Description: as §1
(§5) For the study of the in vitro effect on intracellular forms of Leishmania, the experimental model designed by the group of the present inventors was used [Sánchez-Moreno. M. et al. Med. Chem. 2012, 55, 9900-9913; Sánchez-Moreno. M. et al. J. Antimicrob. Chemother. 2012, 67, 387-397]. The macrophages were detached from the culture flask where they were attached by dry blows. To do this, it was incubated in cold for 5 minutes and after that the flask was hit with the palm of the hand until the cells were detached from the flask. Then, they were passed to a 25 ml capacity steriling conical bottom flask (Deltalab) to centrifuge them at 120 g for 5 minutes, removing the supernatant and were counted in Neubauer’s chamber. Cells were suspended in RPMI medium at a concentration of 1×10^4 cells/well, then cultured in 24-well plates into which a 12 mm round slide had previously been placed into each well. For adherence, the cells were left 24 h at 37° C. in 5% CO2. Subsequently, the cells were infected in vitro by placing Leishmania cells at the rate of 10 parasites/macrophage according to [Sánchez-Moreno. M et al. Med. Chem. 2011, 54, 970-979]. […] The products were allowed to act for 72 hours of incubation.
(§6) After that time, the crystals were removed and fixed with methanol on a slide and allowed to dry, after which DPX microscopy mounting medium (Panreac®) was added to it. Once the preparations had been mounted, they were dyed with Giemsa by diluting Azur-Eosin-Methylene Blue solution according to Giemsa DC (Code 251338) with Sorensen buffer (1:10 dilution). The preparations were covered and allowed to colour for 20 minutes, after which they were washed with distilled water and then allowed to drain and dry vertically. Finally, the amastigote forms were counted with the aim of immersion in a total of 200 cells.

[4] = system: L. braziliensis promastigote forms; assay: In vitro activity against extracellular (promastigote) forms; type: cell-based, Leishmania braziliensis; details: for Selectivity Index (SI) L. brazilensis Promastigote forms: IC50 of macrophages / IC50 of parasite form; for IC50: Leishmania braziliensis, 72 h
Description: as §1, §2, §3, §4

[5] = system: L. braziliensis amastigote forms; assay: In vitro activity against intracellular (amastigote) forms in macrophages; type: cell-based, Leishmania braziliensis; details: for Selectivity Index (SI) L. brazilensis Amastigote forms: IC50 of macrophages / IC50 of parasite form; for IC50: Leishmania braziliensis, Macrophage, 72 h
Description: as §1, §5, §6

[6] = system: L. donovani promastigote forms; assay: In vitro activity against extracellular (promastigote) forms; type: cell-based, Leishmania donovani; details: for Selectivity Index (SI) L. donvovani Promastigote forms: IC50 of macrophages / IC50 of parasite form; for IC50: Leishmania donovani, 72 h
Description: as §1, §2, §3, §4

[7] = system: L. donovani amastigote forms; assay: In vitro activity against intracellular (amastigote) forms in macrophages; type: cell-based, Leishmania donovani; details: for Selectivity Index (SI) L. donvovani Amastigote forms: IC50 of macrophages / IC50 of parasite form; for IC50: Leishmania donovani, Macrophage, 72 h
Description: as §1, §5, §6

SMILES | Log β [1] | Logarithm of the protonation constant H+L ⇌ HL [1] | Logarithm of the protonation constant HL+H ⇌ H2L [1] | Selectivity Index (SI) L. infantum Promastigote forms [2] | IC50 [2] | Selectivity Index (SI) L. infantum Amastigote forms [3] | IC50 [3] | Selectivity Index (SI) L. brazilensis Promastigote forms [4] | IC50 [4] | Selectivity Index (SI) L. brazilensis Amastigote forms [5] | IC50 [5] | Selectivity Index (SI) L. donvovani Promastigote forms [6] | IC50 [6] | Selectivity Index (SI) L. donvovani Amastigote forms [7] | IC50 [7] | Logarithm of the protonation constant H2L+H ⇌ H3L [1]
CNCCNCc1ccc2ccccc2n1 [Compound 9, 1-{2-quinolyl)-2,5-diazahexane] | 15.10(3) | 9.68(2) | 5.41(2) | 23 | 15.6 ± 0.8 µM | 25 | 14.3 ± 0.6 µM | 13 | 28 ± 0.3 µM | 13 | 26.5 ± 0.9 µM | 13 | 27.5 ± 0.4 µM | 11 | 31.9 ± 1.1 µM | –
CNCCNCc1ccnc2ccccc12 [Compound 10] | 17.99(1) | 9.512(6) | 5.297(7) | 13 | 12.5 ± 1.1 µM | 9 | 18.7 ± 1.5 µM | 9 | 18.4 ± 1.1 µM | 8 | 21.7 ± 2.3 µM | 7 | 24.1 ± 0.6 µM | 6 | 26.8 ± 2.1 µM | 3.183(8)
